A short description of assay [1]: Competitive antagonist at alpha-adrenergic receptor in New Zealand rabbit aorta assessed as methoxamine-induced contraction after 45 mins. Format: tissue-based, Oryctolagus cuniculus.
Assay [2] addresses Adrenergic receptor alpha. Briefly: Antagonist at postsynaptic alpha-adrenergic receptor in rat vas deferens. Format: tissue-based.

By pA2 is commonly meant the negative logarithm of the molar antagonist concentration that doubles the agonist concentration needed for the same response. As to `COc1cccc(OC)c1OCCNC[C@H]1COc2ccccc2O1.Cl`, the pA2 in assay [1] was 9.02.
As to `COc1cccc(OC)c1OCCNCC1COc2ccccc2O1` (racemic), the pA2 is reported as 8.83 in assay [1] and 9.8 in assay [2].
On to `COc1cccc(OC)c1OCCNC[C@@H]1COc2ccccc2O1.Cl`, for which, in assay [1], the pA2 is 7.35.
